Values after ≈ are worked out from the molar mass of the structure shown.
How the values were obtained:
[1] = tested on: Streptococcus pyogenes Aronson; assay: Antibiotic activity in vitro, agar dilution method in DST agar (MIC); assay type: cell-based
Source text: (§1) A. Die antibiotische Aktivität der Testverbindungen in vitro wurde durch die Agarverdünnungsmethode nach Ericsson, H.M. und Sherris, S.C., 1971, Acta Path. Microb. Scand. Section B, Suppl. No. 217, Bd. 1-90, in DST Agar ermittelt. Die gefundenen, das Wachstum der Testorganismen noch hemmenden Minimalkonzentrationen (MIC = minimum inhibiting concentrations) werden in Mikrogramm pro Milliliter (µg/ml) für die geprüften Verbindungen in der Tabelle 1 angegeben.

[2] = tested on: Neisseria meningitidis; assay: as above; assay type: cell-based
Source text: as §1

[3] = tested on: Escherichia coli DC2; assay: as above; assay type: cell-based
Source text: as §1

[4] = tested on: Klebsiella pneumoniae 372; assay: as above; assay type: cell-based
Source text: as §1

[5] = tested on: Escherichia coli 205; assay: Chemotherapeutic activity in vivo against systemic infection in mice (ED50); design: species or system weiblichen SPF, MF2 Mäusen
Source text: (§2) B. Die chemotherapeutsche Wirksamkeit in vivo gegen systemische Infektionen in weiblichen SPF, MF2 Mäusen wurde nach der Methode von Zak, 0., et al., 1979, Drugs Exptl. Clin. Res. 5, 45.59, ermittelt. Die gefundenen ED50 -Werte in Milligramm Substanz pro Kilogramm Maus (mg/kg) gegen eine Anzahl von Mikroorganismen werden für die oral (p.o.) oder subcutan (s.c.) applizierten Testverbindungen in der Tabelle 2 angegeben.

[6] = tested on: Staphylococcus aureus 10 B; assay: as above; design: species or system weiblichen SPF, MF2 Mäusen
Source text: as §2

[7] = tested on: Proteus mirabilis 774; assay: as above; design: species or system weiblichen SPF, MF2 Mäusen; details: po
Source text: as §2

[8] = tested on: Klebsiella pneumoniae 327; assay: as above; design: species or system weiblichen SPF, MF2 Mäusen; details: po
Source text: as §2

`CCS(=O)(=O)Nc1cc([C@@H](N)C(=O)N[C@@H]2C(=O)N3C(C(=O)O)=C(OC)CS[C@H]23)ccc1O` [Verbindung 6, 7ß-[D-2-Amino-2-(3-äthylsulfonylamino-4-hydroxyphenyl)-acetylamino]-3-methoxy-ceph-3-em-4-carbonsäure] was tested, and the MIC [1] was 0.5 µg/mL (≈ 1.03 µM), the MIC [2] was 0.1 µg/mL (≈ 0.206 µM) and the MIC [3] was 2 µg/mL (≈ 4.11 µM). For the same compound, the MIC [4] was 16 µg/mL (≈ 32.9 µM), the ED50 ([5]; po) was 6 mg/kg and the ED50 ([5]; sc) was 8 mg/kg. It also gave an ED50 ([6]; po) of 6 mg/kg, an ED50 ([6]; sc) of 15 mg/kg and an ED50 [7] of 30 mg/kg. The ED50 [8] was 10 mg/kg.

With `CCS(=O)(=O)Nc1cc([C@@H](N)C(=O)N[C@@H]2C(=O)N3C(C(=O)O)=C(Cl)CS[C@H]23)ccc1O` [Verbindung 5, 7ß-[D-2-Amino-2-(3-äthylsulfonylamino-4-hydroxyphenyl)-acetylamino]-3-chlor-ceph-3-em-4-carbonsäure] the MIC [1] was 0.5 µg/mL (≈ 1.02 µM), the MIC [2] was 0.1 µg/mL (≈ 0.204 µM) and the MIC [3] was 2 µg/mL (≈ 4.07 µM). For the same compound, the MIC [4] was 1 µg/mL (≈ 2.04 µM), the ED50 ([5]; po) was 4.5 mg/kg and the ED50 ([5]; sc) was 3 mg/kg. It also gave an ED50 ([6]; po) of 7 mg/kg, an ED50 ([6]; sc) of 10 mg/kg and an ED50 [7] of 30 mg/kg. It also gave an ED50 [8] of 1.4 mg/kg.

In the case of `CCS(=O)(=O)Nc1cc([C@@H](N)C(=O)N[C@@H]2C(=O)N3C(C(=O)O)=CCS[C@H]23)ccc1O` [Verbindung 4, 7ß-[D-2-Amino-2-(3-äthylsulfonylamino-4-hydroxyphenyl)-acetylamino]-ceph-3-em-4-carbonsäure], the MIC [1] was 1 µg/mL (≈ 2.19 µM), the MIC [2] was 4 µg/mL (≈ 8.76 µM) and the MIC [3] was 4 µg/mL (≈ 8.76 µM). It also gave an MIC [4] of 4 µg/mL (≈ 8.76 µM), an ED50 ([5]; po) of 4.5 mg/kg and an ED50 ([5]; sc) of 3 mg/kg. For the same compound, the ED50 ([6]; po) was 1.5 mg/kg, the ED50 ([6]; sc) was 3 mg/kg and the ED50 [7] was 30 mg/kg. For the same compound, the ED50 [8] was 1.4 mg/kg.

`CS(=O)(=O)Nc1cc([C@@H](N)C(=O)N[C@@H]2C(=O)N3C(C(=O)O)=C(Cl)CS[C@H]23)ccc1O` [Verbindung 3, 7ß-[D-2-Amino-2-(3-methylsulfonylamino-4-hydroxyphenyl)-acetylamino]-3-chlor-ceph-3-em-4-carbonsäure] was tested, and the MIC [1] was 0.5 µg/mL (≈ 1.05 µM), the MIC [2] was 0.5 µg/mL (≈ 1.05 µM) and the MIC [3] was 0.5 µg/mL (≈ 1.05 µM). It also gave an MIC [4] of 1 µg/mL (≈ 2.1 µM), an ED50 ([5]; po) of 2 mg/kg and an ED50 ([5]; sc) of 3 mg/kg. The ED50 ([6]; po) was 4 mg/kg, the ED50 ([6]; sc) was 10 mg/kg and the ED50 [7] was 4 mg/kg. It also gave an ED50 [8] of 3 mg/kg.

Work on `CS(=O)(=O)Nc1cc([C@@H](N)C(=O)N[C@@H]2C(=O)N3C(C(=O)O)=CCS[C@H]23)ccc1O` [Verbindung 2, 7ß-[D-2-Amino-2-(3-methylsulfQnylamino-4-hydroxyphenyl)-acetylamino]-ceph-3-em-4-carbonsäure] yielded an MIC [1] of 4 µg/mL (≈ 9.04 µM), an MIC [2] of 8 µg/mL (≈ 18.1 µM) and an MIC [3] of 4 µg/mL (≈ 9.04 µM). It also gave an MIC [4] of 4 µg/mL (≈ 9.04 µM), an ED50 ([5]; po) of 2.2 mg/kg and an ED50 ([6]; po) of 1.5 mg/kg. For the same compound, the ED50 ([6]; sc) was 3 mg/kg, the ED50 [7] was 22 mg/kg and the ED50 [8] was 3 mg/kg.

With `COC1=C(C(=O)O)N2C(=O)[C@@H](NC(=O)[C@H](N)c3ccc(O)c(NS(C)(=O)=O)c3)[C@H]2SC1` [Verbindung 1, 7ß-[D-2-Amino-2-(3-methylsulfonylamino-4-hydroxyphenyl)-acetylamino]-3-methoxy-ceph-3-em-4-carbonsäure] the MIC [1] was 0.1 µg/mL (≈ 0.212 µM), the MIC [2] was 1 µg/mL (≈ 2.12 µM) and the MIC [3] was 0.5 µg/mL (≈ 1.06 µM). For the same compound, the MIC [4] was 2 µg/mL (≈ 4.23 µM), the ED50 ([5]; po) was 5 mg/kg and the ED50 ([5]; sc) was 6 mg/kg. It also gave an ED50 ([6]; po) of 1.5 mg/kg, an ED50 ([6]; sc) of 3 mg/kg and an ED50 [7] of 22 mg/kg. For the same compound, the ED50 [8] was 7 mg/kg.

— patent publication EP0046734A2, “Aminohydroxyphenyl derivatives of cephalosporins, process for their preparation and pharmaceutical compositions containing them” (CIBA-GEIGY AG, priority 1980, dated 1982)
